# Source: patent US20230271959A1, “HETEROCYCLIC COMPOUND AS BCL-2 INHIBITOR” (Beijing Innocare Pharma Tech Co., Ltd., priority 2020, published 2023)
# pIC50: −log10 of the molar value.
# Legend:
# [1] = target: T1, human recombinant Bcl-2 protein (Homo sapiens, UniProt P10415); test: Fluorescence polarization test for inhibition of BCL-2 binding to FITC-BIM; conditions: 5 nM BCL-2, 5 nM FITC-BIM, read-out: FP BCL-2 IC50
# T1 construct: purchased Beijing Yigiao Shenzhou Biotechnology Co., Ltd. 10195-HOSE
# Summary of the method: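 FP competition: compound preincubated 15 min with recombinant human Bcl-2 (diluted to 5 nM), then FITC-BIM (diluted to 5 nM) added for 30 min at room temperature in PBS pH 7.4 with 1 mM DTT. Polarization read at 480/535 nm; IC50 from 8-point 4-fold series fitted by four-parameter equation.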
# [2] = target: T2, human recombinant Bcl-XL protein (Homo sapiens, UniProt Q07817); test: Fluorescence polarization test for inhibition of BCL-XL binding to FITC-BIM; conditions: 10 nM BCL-XL, 10 nM FITC-BIM, read-out: FP BCL-XL IC50
# T2 construct: purchased Beijing Yiqiao Shenzhou Biotechnology Co., Ltd. 10455-H0SE
# Summary of the method: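 Human recombinant Bcl-XL (10 nM diluted stock) preincubated with compound 15 min at RT in PBS pH 7.4, 1 mM DTT, then FITC-BIM peptide (10 nM diluted stock) added for 30 min in dark. FP read at ex 480/em 535 nm; no-protein wells = 100% inhibition; IC50 from 8-point 4-fold dilution curve fit.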
# [3] = system: RS4;11 cells (acute lymphoblastic leukemia cells); test: RS4;11 cell proliferation, CellTilter-Glo luminescence cell viability assay; assay type: cell-based; conditions: Homo sapiens, RS4-11; CTG readout after 48 hours
# Summary of the method: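 RS4;11 cells plated overnight were exposed for 48 h at 37 °C, 5% CO2 to an 8-point, 4-fold compound dilution series; the vehicle control contained 0.2% DMSO. Viability was read by CellTiter-Glo luminescence. Percent inhibition was referenced to no-cell and DMSO controls, and IC50 came from a four-parameter sigmoidal fit.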
# T1 sequence (P10415 whole entry): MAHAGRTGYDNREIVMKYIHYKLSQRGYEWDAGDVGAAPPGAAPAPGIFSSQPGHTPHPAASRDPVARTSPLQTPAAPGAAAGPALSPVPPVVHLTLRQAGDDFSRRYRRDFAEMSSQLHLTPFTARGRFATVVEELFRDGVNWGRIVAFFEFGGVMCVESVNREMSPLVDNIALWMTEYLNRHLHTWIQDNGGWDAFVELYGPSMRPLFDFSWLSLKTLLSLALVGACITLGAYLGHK
# T2 sequence (Q07817 whole entry): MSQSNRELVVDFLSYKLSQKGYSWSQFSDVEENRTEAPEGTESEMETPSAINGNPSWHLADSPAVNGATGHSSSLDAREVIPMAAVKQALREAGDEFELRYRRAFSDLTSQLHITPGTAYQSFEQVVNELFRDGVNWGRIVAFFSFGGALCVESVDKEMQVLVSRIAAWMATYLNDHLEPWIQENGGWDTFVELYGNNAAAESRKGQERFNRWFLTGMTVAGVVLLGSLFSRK
SMILES,pIC50 [1],pIC50 [2],pIC50 [3]
"C[C@@H]1CCC(CN2CCN(c3ccc(C(=O)NS(=O)(=O)c4ccc(NCC5CCOCC5)c([N+](=O)[O-])c4)c(Oc4cnc5[nH]ccc5c4)c3)[C@H](C)C2)=C(c2ccc(Cl)cc2)C1 [Example 23, 2-((1H-pyrrolo[2,3-b]pyridin-5-yl)oxy)-4-((R)-4-(((R)-4′-chloro-5-methyl-3,4,5,6-tetrahydro-[1,1′-biphenyl]-2-yl)methyl)-2-methylpiperazin-1-yl)-N-((3-nitro-4-(((tetrahydro-2H-pyran-4-yl)methyl)amino)phenyl)sulfonyl)benzamide]",8.03,< 6.00,7.29
C[C@@H]1CCC(CN2CCN(c3ccc(C(=O)NS(=O)(=O)c4ccc(NC[C@H]5COCCO5)c([N+](=O)[O-])c4)c(Oc4cnc5[nH]ccc5c4)c3)[C@H](C)C2)=C(c2ccc(Cl)cc2)C1 [Example 24],8.20,< 6.00,7.62
"C[C@@H]1CCC(CN2CCN(c3ccc(C(=O)NS(=O)(=O)c4cc(F)c(NCC5CCOCC5)c([N+](=O)[O-])c4)c(Oc4cnc5[nH]ccc5c4)c3)[C@H](C)C2)=C(c2ccc(Cl)cc2)C1 [Example 25, 2-((1H-pyrrolo[2,3-b]pyridin-5-yl)oxy)-4-((R)-(((R)-4′-chloro-5-methyl-3,4,5,6-tetrahydro-[1,1′-biphenyl]-2-yl)methyl)-2-methylpiperazin-1-yl)-N-((3-fluoro-5-nitro-4-(((tetrahydro-2H-pyran-4-yl)methyl)amino)phenyl)sulfonyl)benzamide]",8.57,< 6.00,7.49
C[C@@H]1CCC(CN2CCN(c3ccc(C(=O)NS(=O)(=O)c4cc(F)c(NC[C@H]5COCCO5)c([N+](=O)[O-])c4)c(Oc4cnc5[nH]ccc5c4)c3)[C@H](C)C2)=C(c2ccc(Cl)cc2)C1 [Example 26],8.79,< 6.00,7.85
"C[C@@H]1CN(c2ccc(C(=O)NS(=O)(=O)c3ccc(NCC4CCOCC4)c([N+](=O)[O-])c3)c(Oc3cnc4[nH]ccc4c3)c2)CCN1CC1=C(c2ccc(Cl)cc2)CCC(C)(C)C1 [Example 27, (R)-2-((1H-pyrrolo[2,3-b]pyridin-5-yl)oxy)-4-(4-((4′-chloro-4,4-dimethyl-3,4,5,6-tetrahydro-[1,1′-biphenyl]-2-yl)methyl)-3-methylpiperazin-1-yl)-N-((3-nitro-4--(((tetrahydro-2H-pyran-4-yl)methyl)amino)phenyl)sulfonyl)benzamide]",8.29,< 6.00,7.80
"C[C@@H]1CN(c2ccc(C(=O)NS(=O)(=O)c3cc(F)c(NCC4CCOCC4)c([N+](=O)[O-])c3)c(Oc3cnc4[nH]ccc4c3)c2)CCN1CC1=C(c2ccc(Cl)cc2)CCC(C)(C)C1 [Example 28, (R)-2-((1H-pyrrolo[2,3-b]pyridin-5-yl)oxy)-4-(4-((4′-chloro-4,4-dimethyl-3,4,5,6-tetrahydro-[1,1′-biphenyl]-2-yl)methyl)-3-methylpiperazin-1-yl)-N-((3-fluoro-5-nitro-4--(((tetrahydro-2H-pyran-4-yl)methyl)amino)phenyl)sulfonyl)benzamide]",8.86,< 6.00,8.18
"C[C@@H]1CN(c2ccc(C(=O)NS(=O)(=O)c3ccc(NC[C@H]4COCCO4)c([N+](=O)[O-])c3)c(Oc3cnc4[nH]ccc4c3)c2)CCN1CC1=C(c2ccc(Cl)cc2)CCC(C)(C)C1 [Example 29, N-((4-((((S)-1,4-dioxan-2-yl)methyl)amino)-3-nitrophenyl)sulfonyl)-2-((1H-pyrrolo[2,3-b]pyridin-5-yl)oxy)-4-((R)-4-((4′-chloro-4,4-dimethyl-3,4,5,6-tetrahydro-[1,1′-biphenyl]-2-yl)methyl)-3-methylpiperazin-1-yl) benzamide]",8.80,< 6.00,8.38
"C[C@@H]1CN(c2ccc(C(=O)NS(=O)(=O)c3cc(F)c(NC[C@H]4COCCO4)c([N+](=O)[O-])c3)c(Oc3cnc4[nH]ccc4c3)c2)CCN1CC1=C(c2ccc(Cl)cc2)CCC(C)(C)C1 [Example 30, N-((4-((((S)-1,4-dioxan-2-yl)methyl)amino)-3-fluoro-5-nitrophenyl)sulfonyl)-2-((1H-pyrrolo[2,3-b]pyridin-5-yl)oxy)-4-((R)-4-((4′-chloro-4,4-dimethyl-3,4,5,6-tetrahydro-[1,1′-biphenyl]-2-yl)methyl)-3-methylpiperazin-1-yl)benzamide]",9.08,6.08,8.64
"C[C@@H]1CN(c2ccc(C(=O)NS(=O)(=O)c3ccc(NCC4CCOCC4)c([N+](=O)[O-])c3)c(Oc3cnc4[nH]ccc4c3)c2)CCN1CC1=C(c2ccc(Cl)cc2)CC(C)(C)C2(CC2)C1 [Example 31, (R)-2-((1H-Pyrrolo[2,3-b]pyridin-5-yl)oxy)-4-(4-((6-(4-chlorophenyl)-8,8-dimethylspiro[2.5]oct-5-en-5-yl)methyl)-3-methylpiperazin-1-yl)-N-((3-nitro-4-(((tetrahydro-2H-pyran-4-yl)methyl)amino)phenyl)sulfonyl)benzamide]",8.45,< 6.00,8.09
"C[C@@H]1CN(c2ccc(C(=O)NS(=O)(=O)c3cc(F)c(NC[C@H]4COCCO4)c([N+](=O)[O-])c3)c(Oc3cnc4[nH]ccc4c3)c2)CCN1CC1=C(c2ccc(Cl)cc2)CC(C)(C)C2(CC2)C1 [Example 32, N-((4-((((S)-1,4-dioxan-2-yl)methyl)amino)-3-fluoro-5-nitrophenyl)-sulfonyl)-2-((1H-pyrrolo [2,3-b]pyridin-5-yl)oxy)-4-((R)-4-((6-(4-chlorophenyl)-8,8-dimethylspiro[2.5]oct-5-en-5-yl)methyl)-3-methylpiperazin-1-yl) benzamide]",8.74,< 6.00,8.18
C[C@@H]1CN(c2ccc(C(=O)NS(=O)(=O)c3cc(F)c(NCC4CCOCC4)c([N+](=O)[O-])c3)c(Oc3cnc4[nH]ccc4c3)c2)CCN1CC1=C(c2ccc(Cl)cc2)CC(C)(C)C2(CC2)C1 [Example 33],8.50,< 6.00,7.80
"C[C@@H]1CN(c2ccc(C(=O)NS(=O)(=O)c3ccc(NC[C@H]4COCCO4)c([N+](=O)[O-])c3)c(Oc3cnc4[nH]ccc4c3)c2)CCN1CC1=C(c2ccc(Cl)cc2)CC(C)(C)C2(CC2)C1 [Example 34, N-((4-((((S)-1,4-dioxan-2-yl)methyl)amino)-3-nitrophenyl)sulfonyl)-2-((1H-pyrrolo[2,3-b]pyridin-5-yl)oxy)-4-((R)-4-((6-(4-chlorophenyl)-8,8-dimethylspiro[2.5]oct-5-en-5-yl)methyl)-3-methylpiperazin-1-yl) benzamide]",8.48,< 6.00,8.18
"C[C@@H]1CN(c2ccc(C(=O)NS(=O)(=O)c3cc(F)c(NC[C@H]4COCCO4)c([N+](=O)[O-])c3)c(Oc3cnc4[nH]ccc4c3)c2)CCN1CC1=C(c2ccc(Cl)cc2)CCC2(CC2)C1 [Example 35, N-((4-((((S)-1,4-dioxan-2-yl)methyl)amino)-3-fluoro-5-nitrophenyl)sulfonyl)-2-((1H-pyrrolo[2,3-b]pyridin-5-yl)oxy)-4-((R)-4-((6-(4-chlorophenyl)spiro[2.5]oct-5-en-5-yl)methyl)-3-methylpiperazin-1-yl)benzamide]",8.53,< 6.00,7.77
C[C@@H]1CN(c2ccc(C(=O)NS(=O)(=O)c3ccc(NC[C@H]4COCCO4)c([N+](=O)[O-])c3)c(Oc3cnc4[nH]ccc4c3)c2)CCN1CC1=C(c2ccc(Cl)cc2)CCC2(CC2)C1 [Example 36],8.32,< 6.00,7.68
C[C@@H]1CN(c2ccc(C(=O)NS(=O)(=O)c3cc(F)c(NCC4CCOCC4)c([N+](=O)[O-])c3)c(Oc3cnc4[nH]ccc4c3)c2)CCN1CC1=C(c2ccc(Cl)cc2)CCC2(CC2)C1 [Example 37],8.50,< 6.00,7.66
C[C@@H]1CN(c2ccc(C(=O)NS(=O)(=O)c3ccc(NCC4CCOCC4)c([N+](=O)[O-])c3)c(Oc3cnc4[nH]ccc4c3)c2)CCN1CC1=C(c2ccc(Cl)cc2)CCC2(CC2)C1 [Example 38],8.28,< 6.00,7.49
"C[C@@H]1CN(c2ccc(C(=O)NS(=O)(=O)c3ccc(NCC4CCOCC4)c([N+](=O)[O-])c3)c(Oc3cnc4[nH]ccc4c3)c2)CCN1CC1=C(c2ccc(Cl)cc2)CC(C)(C)C(C)(C)C1 [Example 39, (R)-2-((1H-pyrrolo[2,3-b]pyridin-5-yl)oxy)-4-(4-((4′-chloro-4,4,5,5-tetramethyl-3,4,5,6-tetrahydro-[1,1′-biphenyl]-2-yl)methyl)-3-methylpiperazin-1-yl)-N-((3-nitro-4--(((tetrahydro-2H-pyran-4-yl)methyl)amino)phenyl)sulfonyl)benzamide]",8.57,< 6.00,7.84
C[C@@H]1CN(c2ccc(C(=O)NS(=O)(=O)c3cc(F)c(NCC4CCOCC4)c([N+](=O)[O-])c3)c(Oc3cnc4[nH]ccc4c3)c2)CCN1CC1=C(c2ccc(Cl)cc2)CC(C)(C)C(C)(C)C1 [Example 40],8.75,< 6.00,7.82
